{"source": "patent EP0504254B1", "about": "“THE USE OF GIBBERELLINS FOR THE MANUFACTURE OF A MEDICAMENT FOR THE TREATMENT OF PROSTATITIS” (ODEN, Per, priority 1989, dated 1991)", "key": {"castrated rats": {"system": "castrated rats", "settings": "C.R. Séances Soc. Biol. Filiales 163 (1969); cited from earlier work"}, "[1]": {"system": "male adult uncastrated rats", "experiment": "Dihydrotestosterone-induced hypertrophic growth of the prostatic gland in rats", "assay_type": "in vivo", "settings": "daily 50 mg dihydrotestosterone alone for three months", "experimental": "The weight of the prostate was 814 mg, which was equivalent to about 0.34 % of the total body weight. When the rats were simultaneously given a daily dosis of 100 µg of gibberellins GA₂₀ and GA₃₀, an increase in prostate weight was not detected. The weight of the prostate was in this case 582 mg, which was equivalent to 0.20 % of the total body weight."}}}
{"smiles": "C=C1C[C@]23C[C@@]1(O)CC[C@H]2[C@@]12C=C[C@H](O)[C@@](C)(C(=O)O1)[C@H]2[C@@H]3C(=O)O", "note": "[gibberellic acid]", "values": [{"measurement": "prostate weight", "setting": "castrated rats", "value": "restitution of prostate weight"}]}
{"smiles": "C[C@]12CCC(=O)C[C@@H]1CC[C@@H]1[C@@H]2CC[C@]2(C)[C@@H](O)CC[C@@H]12", "note": "[dihydrotestosterone]", "values": [{"measurement": "weight of the prostate", "setting": "[1]", "value": 814, "unit": "mg"}, {"measurement": "weight of the prostate, equivalent % of the total body weight", "setting": "[1]", "value": "about 0.34%"}]}
